Key:
C. albicans ATCC 90028 = assay: Minimum inhibitory concentration (MIC), broth microdilution; type: cell-based, Candida albicans; details: 37° C., 18-20 h
Experimental: (§1) Staphylococcus aureus (ATCC 25923) and Pseudomonas aeruginosa (ATCC 47085 (PA01)) were grown from fresh colonies in trypticase soy broth (TSB) and incubated overnight at 37° C. Fungal cultures, Candida albicans (ATCC 90028) and Candida auris (CDC 0382, 0384, 0387, and 0389), were grown overnight in sabouraud dextrose broth (SDB) or Roswell Park Memorial Institute medium (RPMI). Cultures of bacteria and fungi were centrifuged, and pellets were washed three times with phosphate buffered saline (PBS) and further resuspended in fresh PBS. Bacterial cultures were diluted in TSB and fungal cultures were diluted in SDB or RPMI to […] or 10^6 CFU/mL (optical density (OD) readings at 600 nm).
(§2) Minimum inhibitory concentrations (MICs) were measured using the broth microdilution protocol described by the Clinical and Laboratory Standards Institute. […] Aliquots (100 μL) of a prepared inoculum (10^6 CFU/mL for bacteria and […] CFU/mL for fungi) were added, and plates were incubated at 37° C. for 18-20 h. Bacterial or fungal growth was visually observed to determine the MICs. Negative and positive controls were included for each set of MIC measurements. For studies with pluronic, the surfactant was added at 4% and 5% to the initial inocula in each experiment. Measurements were performed in triplicate for all susceptibility tests.

S. aureus ATCC 25923 = assay: as above; type: cell-based, Staphylococcus aureus; details: 37° C., 18-20 h
Experimental: as §1, §2

SMILES: CCCCCCCCCCCCNCCC[C@@H](C)[C@H]1CC[C@H]2[C@@H]3[C@H](OCCCN)C[C@@H]4C[C@H](OCCCN)CC[C@]4(C)[C@H]3C[C@H](OCCCN)[C@]12C.Cl.Cl.Cl.Cl [CSA-131]
- MIC (C. albicans ATCC 90028): 0.5 µg/mL
- MIC (S. aureus ATCC 25923): 1 µg/mL

Reference: patent US12070467B2, “Method of treating ciliated tissue using CSA micelles” (Brigham Young University, priority 2018, dated 2024)
